{"source": "paper PMC8269107", "about": "“Lipidation of Temporin-1CEb Derivatives as a Tool for Activity Improvement, Pros and Cons of the Approach” (International Journal of Molecular Sciences, 2021)", "key": {"C.albicans CCM 8186": {"tested_on": "C.albicans CCM 8186", "assay": "MIC, broth microdilution", "format": "cell-based, Candida albicans", "settings": "C.albicans CCM 8186, 24 h", "description": "(§1) Escherichia coli (PCM 2057 = ATCC 25922), Staphylococcus aureus (PCM 2054 = ATCC 25923), Staphylococcus epidermidis (PCM 2118 = ATCC 14990), Bacillus subtilis (PCM 2224 = ATCC 9799), Bacillus cereus (PCM 482 = ATCC 10702) and Pseudomonas aeruginosa (PCM 499 = ATCC 10145) were obtained from the Polish Collection of Microorganisms. Fungi strains Candida albicans (CCM 8186 = CNTC 49/64), Candida glabrata (CCM 8270 = ATCC 90030), Candida parapsilosis (CCM 8260 = ATCC 22019) and Candida krusei (CCM 8271 = ATCC 6258) were acquired from the Czech Collection of Microorganisms. S. aureus USA300 (wild type strain), the reference strain of Klebsiella pneumoniae (ATCC 13883) and clinical isolates of Pseudomonas aeruginosa (PA1, PA2) collected from nonrelated patients admitted to the Stefan Zeromski Specialist Municipal Hospital in Krakow (Poland) were kindly provided by the research group of the Department of Microbiology, Faculty of Biochemistry, Biophysics and Biotechnology, Jagiellonian University, Krakow, Poland.\n(§2) Luria-Bertani broth (LB) and Sabouraud Dextrose broth (SB) (Biocorp, Poland) were used for cultivation of bacteria and fungi strains, respectively. The antimicrobial activity of the peptides were analyzed through determination of MIC (minimal inhibitory concentration) parameters according to Clinical and Laboratory Standards (CLSI) guidelines developed for aerobic bacteria and yeasts, respectively. Mueller-Hinton broth (MHB) was used as the working medium for all bacterial strains, while in the case of fungi, RPMI-1640 (with L-glutamine, without sodium bicarbonate) growth medium buffered with MOPS (morpholinepropanesulfonic acid) and supplemented with 2% glucose was used. Inoculum was prepared from freshly grown cultures of microorganisms at their exponential phase of growth. […] Plates were then incubated for 24 h at 37 °C in the case of bacteria and at 35 °C in the case of fungi. After that time, absorbance was read at 590 nm with a Perkin Elmer plate reader. Cultures without peptide were treated as positive control, while uninoculated media were defined as negative control. All measurements were run at least in triplicate."}, "C.krusei CCM 8271": {"tested_on": "C.krusei CCM 8271", "assay": "MIC, broth microdilution", "format": "cell-based, Candida krusei", "settings": "C.krusei CCM 8271, 24 h", "description": "as §1, §2"}, "C.parapsilosis CCM 8260": {"tested_on": "C.parapsilosis CCM 8260", "assay": "MIC, broth microdilution", "format": "cell-based, Candida parapsilosis", "settings": "C.parapsilosis CCM 8260, 24 h", "description": "as §1, §2"}, "C.glabrata CCM 8270": {"tested_on": "C.glabrata CCM 8270", "assay": "MIC, broth microdilution", "format": "cell-based, Candida glabrata", "settings": "C.glabrata CCM 8270, 24 h", "description": "as §1, §2"}, "B. subtilis PCM 2224": {"tested_on": "B. subtilis PCM 2224", "assay": "MIC, broth microdilution", "format": "cell-based, Bacillus subtilis", "settings": "B. subtilis PCM 2224, 24 h", "description": "as §1, §2"}, "B. cereus PCM 482": {"tested_on": "B. cereus PCM 482", "assay": "MIC, broth microdilution", "format": "cell-based, Bacillus cereus", "settings": "B. cereus PCM 482, 24 h", "description": "as §1, §2"}, "S. epidermidis PCM 2118": {"tested_on": "S. epidermidis PCM 2118", "assay": "MIC, broth microdilution", "format": "cell-based, Staphylococcus epidermidis", "settings": "S. epidermidis PCM 2118, 24 h", "description": "as §1, §2"}, "S. aureus PCM 2054": {"tested_on": "S. aureus PCM 2054", "assay": "MIC, broth microdilution", "format": "cell-based, Staphylococcus aureus", "settings": "S. aureus PCM 2054, standard Mueller-Hinton broth, 24 h", "description": "as §1, §2"}, "E. coli PCM 2057": {"tested_on": "E. coli PCM 2057", "assay": "MIC, broth microdilution", "format": "cell-based, Escherichia coli", "settings": "E. coli PCM 2057, 24 h", "description": "as §1, §2"}, "P. aeruginosa PCM 499": {"tested_on": "P. aeruginosa PCM 499", "assay": "MIC, broth microdilution", "format": "cell-based, Pseudomonas aeruginosa", "settings": "P. aeruginosa PCM 499, 24 h", "description": "as §1, §2"}, "keratinocytes (HaCaT)": {"tested_on": "keratinocytes (HaCaT)", "assay": "Cytotoxicity, MTT assay", "format": "cell-based, human", "settings": "24 h", "procedure": "(§3) Human dermal fibroblasts were obtained as previously reported from biopsies of healthy human skin of three donors undergoing a surgery. All procedures were approved by the Ethics Committee of Medicinal University of Gdansk (NKEBN/483/2011 and NKBBN/745/2019-2020). Immortalized human HaCaT keratinocytes (DKFZ Heidelberg, Germany) were obtained commercially.\n(§4) Both types of cell lines were grown in Dulbecco′s Modified Eagle′s Medium (DMEM) (Sigma-Aldrich, Germany), containing […] of glucose, […] of L- glutamine, sodium pyruvate and sodium bicarbonate. Additionally, the medium was supplemented with 10% FCS (fetal calf serum, Sigma-Aldrich, Germany), 100 U/mL of penicillin and 100 μg/mL of streptomycin (Sigma-Aldrich, Germany). The cells were grown in standard culture dishes (BD, USA) in a humidified atmosphere with 5% CO2 at […], and the medium was changed every 2 days.\n(§5) The fibroblasts and keratinocytes were seeded at density of 5500 cells per well into 96-well plates suspended in a medium supplemented with 10% FCS. After 24 h from seeding, the media were exchanged with serum- and antibiotic-free DMEM and tested peptides, dissolved in sterile water, which were added, yielding a final concentration ranging from 1 to 50 μg/mL. The cells were then incubated for the next 24 h. At the end of the experiment, the cells were treated with 20 μL of MTT (5 mg/mL in PBS). After 3 h of incubation in the presence of MTT dye, the DMEM medium was discarded and replaced with 6 mM HCl in isopropanol. When the purple crystals of formazan were fully solubilized, absorbance at 570 nm was read."}, "primary fibroblasts": {"tested_on": "primary fibroblasts", "assay": "Cytotoxicity, MTT assay", "format": "cell-based, human", "settings": "24 h", "procedure": "as §3, §4, §5"}, "Gelation in water": {"assay": "Gelation in water", "format": "physicochemical", "settings": "for gel formation in water: within the range of analyzed concentrations"}, "K.pneumoniae ATCC 13883": {"tested_on": "K.pneumoniae ATCC 13883", "format": "cell-based, Klebsiella pneumoniae", "settings": "ATCC 13883, 24 h", "description": "as §1, §2"}, "P. aeruginosa PA1": {"tested_on": "P. aeruginosa PA1", "format": "cell-based, Pseudomonas aeruginosa", "settings": "PA1, 24 h", "description": "as §1, §2"}, "P. aeruginosa PA2": {"tested_on": "P. aeruginosa PA2", "format": "cell-based, Pseudomonas aeruginosa", "settings": "PA2, 24 h", "description": "as §1, §2"}}, "note": "Where no end group is shown, it is not given here.", "data": [{"compound": "CCCCC(=O)NCCC(=O)N[C@@H](Cc1c[nH]cn1)C(=O)O", "note": "[Compound C5-CAR, CH3(CH2)3C(O)-βAH]", "values": [{"measurement": "MIC100", "setting": "C.albicans CCM 8186", "value": "Non-inhibitory"}, {"measurement": "MIC100", "setting": "C.krusei CCM 8271", "value": "Non-inhibitory"}, {"measurement": "MIC100", "setting": "C.parapsilosis CCM 8260", "value": "Non-inhibitory"}, {"measurement": "MIC100", "setting": "C.glabrata CCM 8270", "value": "Non-inhibitory"}, {"measurement": "MIC100", "setting": "B. subtilis PCM 2224", "value": "Non-inhibitory"}, {"measurement": "MIC100", "setting": "B. cereus PCM 482", "value": "Non-inhibitory"}, {"measurement": "MIC100", "setting": "S. epidermidis PCM 2118", "value": "Non-inhibitory"}, {"measurement": "MIC100", "setting": "S. aureus PCM 2054", "value": "Non-inhibitory"}, {"measurement": "MIC100", "setting": "E. coli PCM 2057", "value": "Non-inhibitory"}, {"measurement": "MIC100", "setting": "P. aeruginosa PCM 499", "value": "Non-inhibitory"}, {"measurement": "IC50", "setting": "keratinocytes (HaCaT)", "value": ">50", "unit": "µg/mL"}, {"measurement": "IC50", "setting": "primary fibroblasts", "value": ">50", "unit": "µg/mL"}, {"measurement": "gelation in water", "setting": "Gelation in water; concentrations of up to 5 mg/mL", "value": "gelation in water was not observed"}]}, {"compound": "CCCCCCCCCCCC(=O)NCCC(=O)N[C@@H](Cc1c[nH]cn1)C(=O)O", "note": "[Compound C12-CAR, CH3(CH2)10C(O)-βAH]", "values": [{"measurement": "MIC100", "setting": "C.albicans CCM 8186", "value": "Non-inhibitory"}, {"measurement": "MIC100", "setting": "C.krusei CCM 8271", "value": "Non-inhibitory"}, {"measurement": "MIC100", "setting": "C.parapsilosis CCM 8260", "value": "Non-inhibitory"}, {"measurement": "MIC100", "setting": "C.glabrata CCM 8270", "value": "Non-inhibitory"}, {"measurement": "MIC100", "setting": "B. subtilis PCM 2224", "value": "Non-inhibitory"}, {"measurement": "MIC100", "setting": "B. cereus PCM 482", "value": "Non-inhibitory"}, {"measurement": "MIC100", "setting": "S. epidermidis PCM 2118", "value": "Non-inhibitory"}, {"measurement": "MIC100", "setting": "S. aureus PCM 2054", "value": "Non-inhibitory"}, {"measurement": "MIC100", "setting": "E. coli PCM 2057", "value": "Non-inhibitory"}, {"measurement": "MIC100", "setting": "P. aeruginosa PCM 499", "value": "Non-inhibitory"}, {"measurement": "IC50", "setting": "keratinocytes (HaCaT)", "value": ">50", "unit": "µg/mL"}, {"measurement": "IC50", "setting": "primary fibroblasts", "value": ">50", "unit": "µg/mL"}, {"measurement": "gelation of water solution", "setting": "Gelation in water; concentration of 1 mg/mL", "value": "underwent gelation"}, {"measurement": "gel formation in water", "setting": "Gelation in water", "value": "formed self-standing gels in water"}]}, {"compound": "CCCCCCCCCCCCCCCC(=O)NCCC(=O)N[C@@H](Cc1c[nH]cn1)C(=O)O", "note": "[Compound C16-CAR, CH3(CH2)14C(O)-βAH]", "values": [{"measurement": "MIC100", "setting": "C.albicans CCM 8186", "value": "Non-inhibitory"}, {"measurement": "MIC100", "setting": "C.krusei CCM 8271", "value": "Non-inhibitory"}, {"measurement": "MIC100", "setting": "C.parapsilosis CCM 8260", "value": "Non-inhibitory"}, {"measurement": "MIC100", "setting": "C.glabrata CCM 8270", "value": "Non-inhibitory"}, {"measurement": "MIC100", "setting": "B. subtilis PCM 2224", "value": "Non-inhibitory"}, {"measurement": "MIC100", "setting": "B. cereus PCM 482", "value": "Non-inhibitory"}, {"measurement": "MIC100", "setting": "S. epidermidis PCM 2118", "value": "Non-inhibitory"}, {"measurement": "MIC100", "setting": "S. aureus PCM 2054", "value": "Non-inhibitory"}, {"measurement": "MIC100", "setting": "E. coli PCM 2057", "value": "Non-inhibitory"}, {"measurement": "MIC100", "setting": "P. aeruginosa PCM 499", "value": "Non-inhibitory"}, {"measurement": "IC50", "setting": "keratinocytes (HaCaT)", "value": 25, "unit": "µg/mL"}, {"measurement": "IC50", "setting": "primary fibroblasts", "value": 12.5, "unit": "µg/mL"}, {"measurement": "gel formation in water", "setting": "Gelation in water", "value": "formed self-standing gels in water"}]}, {"compound": "IKKILSKIKKLL-NH2 (C-terminus assumed) [DK5, reference compound]", "values": [{"measurement": "MIC100", "setting": "K.pneumoniae ATCC 13883", "value": ">200", "unit": "µg/mL"}, {"measurement": "MIC100", "setting": "P. aeruginosa PA1", "value": 100, "unit": "µg/mL"}, {"measurement": "MIC100", "setting": "P. aeruginosa PA2", "value": 100, "unit": "µg/mL"}, {"measurement": "IC50", "setting": "keratinocytes (HaCaT)", "value": ">50", "unit": "µg/mL"}, {"measurement": "IC50", "setting": "primary fibroblasts", "value": ">50", "unit": "µg/mL"}]}]}
